Test results: patent US4297280A, “4,1-Benzoxazepines” (Shionogi & Co., Ltd., priority 1978, dated 1981)
Counter-ions that a name gives are not always drawn.

Experiments:
[1] = antipentylenetetrazol test (pentylenetetrazol 125 mg/kg s.c.); assay type: in vivo; settings: sc; SLC ddY male mouse, 20-24 g; pentylenetetrazol preliminarily administered at 125 mg/kg s.c.; read-out: ED50 anti-pentylenetetrazol test
Procedure: (§1) *^1 test animal: SLC ddY male mouse, 20-24 g of body weight
*^2 pentylenetetrazol was preliminarily administered at a dose of 125
mg per 1 kg of body weight in subcutaneous injection.

rotarod performance test = assay type: in vivo; settings: SLC ddY male mouse, 20-24 g
Source text: as §1

acute lethality (LD50) = settings: in vivo; DS male mouse, 20-24 g

Compound	ED50 [1] [mg/kg]	ED50 (rotarod performance test) [mg/kg]	LD50 (acute lethality (LD50)) [mg/kg]
Cc1nnc2n1-c1ccc(Cl)cc1C(c1ccccc1Cl)OC2 (centres unmarked)	0.74	30.6	> 1000
CN(C)C=C1N=C2COC(c3ccccc3Cl)c3cc(Cl)ccc3N2C1=O (centres unmarked)	1.6	73.5	> 1000
CN1CCN(C=C2N=C3COC(c4ccccc4Cl)c4cc(Cl)ccc4N3C2=O)CC1 (centres unmarked)	3.28	> 100	> 1000
Cc1nnc2n(c1=O)-c1ccc(Cl)cc1C(c1ccccc1Cl)OC2 (centres unmarked)	0.75	24.5	> 1000
CN1C(=O)CN=C(c2ccccc2)c2cc(Cl)ccc21 [diazepam, reference compound]	1.2	13.4	–
NCc1nnc2n1-c1ccc(Cl)cc1C(c1ccccc1Cl)OC2 (centres unmarked) [drawing 27 (H, hydrobromide)]	2.49	24.1	> 1000
CCOC1(c2ccccc2Cl)OCc2nnc(CN)n2-c2ccc(Cl)cc21 (centres unmarked) [drawing 27 (OC2H5, 1/2 succinate)]	1.14	33.5	> 1000
CN1CCN=C(c2ccccc2)c2cc(Cl)ccc21 [medazepam, reference compound]	4.76	104	> 1000
